Measurements: ChEMBL document CHEMBL1152107 (Bioorg Med Chem Lett, 1997)

Assays:
[1] = molecular target: Tubulin alpha chain (Sus scrofa) (UniProt P02550); experiment: The compound was evaluated in vitro in a tubulin polymerization assay, activity expressed as potency of compound relative to Paclitaxel.; assay type: functional
HCT-116 [2] = experiment: The compound was evaluated for the cytotoxicity against human colon cancer cell lines(HCT116), activity expressed as IC50 vs IC50 of Paclitaxel.; assay type: functional
HCT-116 [3] = experiment: The compound was evaluated in vitro for inhibition of human colon cancer cell line HCT116; assay type: functional, cell-based
M109 = experiment: The compound was evaluated in vivo for the T/C ratio against M-109 lung carcinoma.; assay type: functional, Mus musculus

Sequence of Tubulin alpha chain (Sus scrofa) (P02550 whole entry, looked up): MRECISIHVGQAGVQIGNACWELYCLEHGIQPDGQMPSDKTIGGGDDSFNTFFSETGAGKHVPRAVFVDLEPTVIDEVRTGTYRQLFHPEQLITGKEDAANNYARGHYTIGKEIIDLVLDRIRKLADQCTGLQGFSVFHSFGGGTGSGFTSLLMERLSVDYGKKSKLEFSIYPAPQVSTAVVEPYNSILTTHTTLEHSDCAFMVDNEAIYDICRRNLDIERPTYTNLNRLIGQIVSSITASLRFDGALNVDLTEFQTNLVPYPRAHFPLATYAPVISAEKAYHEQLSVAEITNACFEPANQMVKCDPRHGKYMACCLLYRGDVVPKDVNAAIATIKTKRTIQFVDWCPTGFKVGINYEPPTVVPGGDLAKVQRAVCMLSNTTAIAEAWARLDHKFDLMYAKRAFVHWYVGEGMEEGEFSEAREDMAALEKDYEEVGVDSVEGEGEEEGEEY

Ratio [1] | IC50 (HCT-116 [3]) | SMILES | Ratio (HCT-116 [2]) | T/C (M109)
1.5 | 6.6 nM | CC(=O)O[C@H]1C(=O)[C@@]2(C)[C@H]([C@H](OC(=O)c3ccccc3)[C@]3(O)C[C@H](OC(=O)[C@H](O)[C@@H](OC(=O)NC(C)(C)C)c4ccccc4)C(C)=C1C3(C)C)[C@]1(OC(C)=O)CO[C@@H]1C[C@@H]2O | 3.3 | 166%
7.8 | 10.3 nM | CC(=O)O[C@@]12CO[C@@H]1C[C@H](O)[C@@]1(C)C(=O)[C@H](O)C3=C(C)[C@@H](OC(=O)[C@H](O)[C@@H](OC(=O)NC(C)(C)C)c4ccccc4)C[C@@](O)([C@@H](OC(=O)c4ccccc4)C12)C3(C)C (some centres not stated) | 5.1 | 
 |  | CC(=O)O[C@H]1C(=O)[C@@]2(C)[C@H]([C@H](OC(=O)c3ccccc3)[C@]3(O)C[C@H](OC(=O)[C@H](O)[C@@H](NC(=O)c4ccccc4)c4ccccc4)C(C)=C1C3(C)C)[C@]1(OC(C)=O)CO[C@@H]1C[C@@H]2O [PACLITAXEL] | 1 | 166%
> 100 | > 200 nM | CC(=O)O[C@H]1C(=O)[C@@]2(C)[C@H]([C@H](OC(=O)c3ccccc3)[C@]3(O)C[C@H](OC(=O)[C@H](O)[C@@H](O)c4ccccc4)C(C)=C1C3(C)C)[C@]1(OC(C)=O)CO[C@@H]1C[C@@H]2O | >100 | 
